Where a SMILES comes first, the peptide text is derived from it. Bridges are numbered along the chain shown (N, C = ends).
What was measured:
[1] = system: K562 cells; experiment: NK cytotoxic activity, Cr51 release; assay type: cell-based; conditions: 50 μM
Procedure: The release of danger signals such as HSP70 and CRT has been reported to be involved in increasing the susceptibility of tumor cells toward cytotoxic activity of NK cells. Therefore, the effect of the peptide identified as SEQ ID NO: 1 on the susceptibility of tumor cells toward NK cytotoxic activity was evaluated. To do that, the classic target cells to NK activity, K562 cells, were employed. Target cells were labeled with Cr^51 (approximate specific activity: 100 μCi/μg) by incubation for 70 minutes at 37° C. Subsequently, target cells were washed three times with RPMI medium supplemented with 2% FBS and seeded in 96-well plates, at a target:effector ratio of 1:25. On the other hand, NK cells were isolated from peripheral blood mononuclear cells (PBMC) of healthy donors, by negative selection, using magnetic beads (Miltenyi Biotec). Thus, CD56+CD3− NK cells were obtained with more than 96% purity. The peptide identified as SEQ ID NO: 1 was added to the co-culture at 12.5; 25 and 50 μM. After 4 hours of incubation, supernatant was collected for the measurement of Cr^51 release using a scintillation counter. The percentage of specific lysis was calculated as follows: […]
Target cells without coincubation with effector cells were employed as spontaneous lysis control. Target cells with the peptide identified as SEQ ID NO: 1 constitute the toxicity control of the peptide.

[2] = system: OCI-AML3 and HL-60 tumor cells; conditions: read-out: IC50 dose
[3] = system: RagOT-I cells / dendritic cells matured with treated 3LL cells; experiment: In vitro activation of OT-I CD8+ T cells by dendritic cells, IFN-γ ELISA; assay type: cell-based, mouse; conditions: versus negative control, CX4945 and Tat peptide
Procedure: Additionally, the ability of activating CD8+ T cells in vitro by these dendritic cells matured with peptide-treated 3LL cells was evaluated. For this purpose, dendritic cells previously co-incubated with tumor cells, under the conditions described above, were washed and loaded with the […] peptide from OVA, MHC class I restricted, at different concentrations (0, 10, 30 and 100 pg/mL) during three hours. After that time, they were washed again and co-incubated with RagOT-I cells in a 1:1 ratio for 48 hours. IFN-γ production was finally quantified by ELISA. RagOT-I cells co-incubated with dendritic cells previously incubated with untreated 3LL cells constituted the negative control of experiment.

[4] = system: L1210 cells; experiment: Tumor microenvironment in DBA/2 mice: serum cytokines and intratumoral cell populations; assay type: in vivo; conditions: for modulation in cytokine levels (IL12p70, TNF-α, IL-6, IL-10): Tat 20 mg/kg intratumoral, DOX 10 mM intratumoral, CX4945 75 mg/kg oral twice a day, five days; for intratumoral Foxp3+ T cell levels: peptide 20 mg/kg, DOX 10 mM, Tat 20 mg/kg, CX4945 75 mg/kg oral
Procedure: To study whether the peptide identified as SEQ ID NO: 1 was capable of modulating the tumor microenvironment, female DBA/2 mice, 6-8 weeks old, and between 17-19 grams were inoculated with 0.5×10^6 L1210 cells, subcutaneously, into right flank (inguinal inoculation). Seven days after tumor challenge, 42 mice with palpable and non-measurable tumor were selected, which were random assigned to six groups of seven animals each. […] DOX (10 mM) and Tat peptide (20 mg/kg), were administered intratumorally, in a final volume of 50 μL, a daily inoculation for five days. The compound CX4945 (75 mg/kg) was administered in 25 mM NaH2PO4 buffer, twice a day, orally, for five days. Seven days after the end of the treatment, the mice were euthanized to obtain the tumors (day 18 of the procedure). Before sacrificing the mice, blood samples were obtained for the cytokines (IL-6, IL-10, IL-12p70, TNF-α) detection by ELISA. Tumors were cut into small pieces and transferred to gentleMACS tubes with RPMI medium, supplemented with an enzyme cocktail from Tumor Dissociation kit (Miltenyi Biotech, Germany). Tumor dissociation was performed using the gentleMACS™ Dissociator kit and a tumor dissociation kit (Miltenyi Biotech, Germany). The digested suspension was filtered, centrifuged and labeled with specific antibodies against CD8, CD4, Foxp3, CD11c, CD86 and CD40.

[5] = system: L1210 cells; experiment: Vaccination with treated tumor cells, then challenge with live cells; assay type: in vivo, DBA/2 mice; conditions: vaccinated with cells treated with 5 μM CX4945 for 24 hours
Procedure: In order to explore whether the cell death induced by the peptide identified as SEQ ID NO: 1 had any immunomodulatory effect, a vaccination schedule was performed in mice with tumor cells previously treated with the peptide identified as SEQ ID NO: 1. For this purpose, 1×10^6 L1210 cells treated in vitro with 40 μM of the peptide identified as SEQ ID NO: 1, or time-matched untreated cells during 3 hours were subcutaneously injected in 0.1 mL in the inguinal area into right flank of 6-8 weeks female DBA/2 mice. After seven days, 1×10^6 live L1210 cells were inoculated on opposite flank, and tumor growth and volume were evaluated until day 45. Tumors were measured with Vernier calipers, three times a week, tumor volume was estimated using the formula: Volume=width^2 (mm)×length/2 (mm). As a positive control, cells treated with 15 μM DOX for 24 hours were used for vaccination. A group vaccinated with 5 μM CX4945-treated cells for 24 hours was also included. In total 4 groups were formed of 10 mice each group.

[6] = system: 3LL-OVA cells; experiment: Cellular immune response, IFN-γ ELISPOT after inoculation of treated cells; assay type: in vivo, C57/BL6 mice; conditions: 3LL-OVA cells treated with 40 μM peptide 3 hours, 5 μM CX4945 or 40 μM Tat 3 hours; lymph node cells after 5 days
[7] = system: HL-60 cells; experiment: Phagocytosis of treated tumor cells by M1 and M2 macrophages; assay type: cell-based; conditions: peptide 40 μM and 10 μM 5 hours, CX4945 5 μM 24 hours, Tat 40 μM 5 hours
Procedure: (§1) Treatment with the peptide identified as SEQ ID NO: 1, as described in examples 2 and 3, is capable of increasing “eat me” signals and decreasing “don't eat me” signals. Therefore, it fostered to evaluate whether the treatment with the peptide identified as SEQ ID NO: 1 facilitate phagocytosis of tumor cells by macrophages, and whether this is performed by M1 or M2 macrophages. For that purpose, HL-60 and OCI-AML3 leukemia tumor cell lines were previously stained with 0.5 μM CFSE and treated with 10 or 40 μM of the peptide identified as SEQ ID NO: 1, for five hours, 5 μM CX4945 for 24 hours or 40 μM Tat during 5 hours. Subsequently, cells were washed and co-cultured with each type of M1 and M2 macrophages, at a 1:1 ratio for three hours. Different types of macrophages were obtained from PBMC of healthy donors by Ficoll™ gradient. Monocytes were purified by positive selection, using CD14 beads with an MS column (Miltenyi Biotech, Germany), obtaining 96% purity. Monocytes were seeded at 0.25×10^6 cells/mL/well, in 12-wells plates and were induced with 100 ng/mL of GM-CSF, for seven days, and with 50 ng/mL of IFN-γ for last 24 hours, to obtain M1 macrophages. M2 macrophages were induced with 50 ng/mL of M-CSF for seven days and 100 ng/mL of IL-10 for last 24 hours. […]

[8] = system: OCI-AML3 cells; experiment: as above; assay type: cell-based; conditions: peptide 40 μM and 10 μM 5 hours, CX4945 5 μM 24 hours, Tat 40 μM 5 hours
Procedure: as §1

[9] = system: PDL1 in A549 cells; experiment: PDL1 levels by flow cytometry; assay type: cell-based; conditions: 30 μM peptide, 5 μM CX4945 or 30 μM Tat peptide, 24 hours
Procedure: (§2) Immune checkpoints are currently an important target in cancer immunotherapy, due to their immunosuppressive role during the course of this disease. Taking this into account, effect of the peptide identified as SEQ ID NO: 1 on modulation of PDL1 levels in two non-small cell lung cancer cell lines: […], was evaluated. For that, 5×10^4 cells were seeded in 24-well plates. The day after, cells were treated with 30 μM peptide identified as SEQ ID NO: 1; 5 μM CX4945 or 30 μM Tat peptide, for 24 hours. After treatment, cells were collected, staining with an anti-PDL1 antibody and analyzed by flow cytometry.

[10] = system: PDL1 in H460 cells; experiment: PDL1 levels by flow cytometry; assay type: cell-based; conditions: 30 μM peptide, 5 μM CX4945 or 30 μM Tat peptide, 24 hours
Procedure: as §2

[11] = system: Lewis Lung Carcinoma cells; experiment: Anti-PDL1 therapy in a murine model of lung cancer; assay type: in vivo, C57/BL6 mice
Excerpt: Taking into account the results obtained in the in vitro test, it was decided to evaluate whether the use of the peptide identified as SEQ ID NO: 1 improved the antitumor efficacy of anti-PDL1 therapy in a murine model of lung cancer. For that, 2×10^5 Lewis Lung Carcinoma cells were subcutaneously implanted (day 0) in 6-8 weeks old C57/BL6 female mice with 17-19 grams of body weight. Nine days after the tumor challenge, 42 animals with 40 mm^3 tumors were randomized into six groups with seven mice each. CX4945 (75 mg/kg) was orally administered in 25 mM NaH2PO4 buffer twice daily. 40 mg/kg of the peptide identified as SEQ ID NO: 1 and 100 μg anti-PDL1 antibody (clone 10F.9G2, isotype rat IgG2b kappa) were intraperitoneally applied. Tumor volume and body weight were determined 3 times a week for 40 days. Tumor volume was measured and calculated as described in Example 7.

Row | SMILES | toxicity to target cells [1] | IC50 [2] [µM] | IFN-γ production by CD8+ OT-I cells [3] | modulation in cytokine levels (IL12p70, TNF-α, IL-6, IL-10) [4] | intratumoral Foxp3+ T cell levels [4] | vaccine effect of treated cells [5] | response of IFN-γ-secreting effector cells (ELISPOT) against OVA and OVA class I peptide [6] | susceptibility to be phagocytosed by M1 macrophages [7] | susceptibility to be phagocytosed by M1 macrophages [8] | % PDL1+ cells [9] [%] | IFM [9] | PDL1 expression ([9]; in words) | % PDL1+ cells [10] [%] | IFM [10] | PDL1 expression ([10]; in words) | tumor volume, combined with anti-PDL1 antibody ([11]; as alone, plus 100 μg anti-PDL1 antibody intraperitoneal, days 9, 12, 15, 18) | tumor progression (tumor volume), alone ([11]; peptide 40 mg/kg intraperitoneal or CX4945 75 mg/kg oral twice daily, days 9-13)
1 | CSCC[C@@H]1NC(=O)[C@H](Cc2c[nH]c3ccccc23)NC(=O)[C@@H](NC(=O)[C@H](C)NC(=O)[C@H](CCC(N)=O)NC(=O)[C@@H]2CCCN2C(=O)[C@@H]2CCCN2C(=O)[C@H](CCCNC(=N)N)NC(=O)[C@H](CCCNC(=N)N)NC(=O)[C@H](CCCNC(=N)N)NC(=O)[C@H](CCC(N)=O)NC(=O)[C@H](CCCNC(=N)N)NC(=O)[C@H](CCCNC(=N)N)NC(=O)[C@H](CCCCN)NC(=O)[C@H](CCCCN)NC(=O)[C@H](CCCNC(=N)N)NC(=O)CN)CSSC[C@@H](C(=O)O)NC(=O)[C@H]([C@@H](C)O)NC(=O)CNC(=O)[C@H](CC(C)C)NC(=O)[C@H](Cc2c[nH]cn2)NC(=O)[C@H](CCCNC(=N)N)NC(=O)[C@@H]2CCCN2C(=O)[C@H](CO)NC1=O [peptide identified as SEQ ID NO: 1] (H-GRKKRRQRRRPPQACWMSPRHLGTC-OH; disulfide 15-25) | showed toxicity | 40 | – | – | – | – | – | – | – | – | – | – | – | – | – | – | –
2 | COc1cccc2c1C(=O)c1c(O)c3c(c(O)c1C2=O)C[C@@](O)(C(=O)CO)C[C@@H]3O[C@H]1C[C@H](N)[C@H](O)[C@H](C)O1 [DOX, doxorubicin] | – | – | significantly higher | not observed | significant decrease | – | – | – | – | – | – | – | – | – | – | – | –
3 | O=C(O)c1ccc2c(c1)nc(Nc1cccc(Cl)c1)c1ccncc12 [CX4945] | – | – | – | not observed | not observed | did not induce any vaccine effect | not able to generate this type of response | not observed | not observed | 29.6 | 16.2 | Differences were not observed | 25.2 | 15.23 | Differences were not observed | not observed | not observed

From patent publication US20240082392A1, “USE OF SYNTHETIC PEPTIDE FOR THE INDUCTION OF ANTITUMOR AND ANTIVIRAL IMMUNITY” (CENTRO DE INGENIERÍA GENÉTICA Y BIOTECNOLOGÍA, priority 2020, published 2024)
